Assay results published in patent US20060149033A1, “IGF antagonist peptides” (GENENTECH, INC., priority 2001, published 2006).
Bridge positions count the residues as written; N and C are the ends. Peptide text beside a SMILES is read from it.

Tests used:
IGFBP3 = assay: Peptide inhibition of phage IGF-1 binding to IGFBP-3; set-up: species or system human; details: synthetic peptide preincubated 45 minutes with IGF-1 displaying phage; plates coated with IGF binding protein; read-out: BP3 Comp
Description: (§1) Peptide Inhibition of Phage IGF-1 Binding to IGF Binding Proteins
(§2) For inhibition of IGFBP-1 and IGFBP3, E. coli cells (XL1-Blue, Stratagene) freshly transformed with the phage vector pIGF-g3 displaying human IGF-1 as described in Dubaquie and Lowman, supra, was grown overnight in 5 ml of 2YT medium (Sambrook et al., Molecular Cloning. A Laboratory Handbook (Cold Spring Harbor Laboratory Press, Cold Spring Harbor, N.Y., 1989)). The IGF-1 displaying phage was titered against IGF bp1 and bp3 for a 500-1000× dilution for preincubation with serial dilutions the synthesized peptides and binding protein standards for 45 minutes. Immunosorbant plates were coated with IGF binding proteins and blocked with 0.5% TWEEN®-20 detergent and PBS and washed as above. The samples were added to the plates for 20 minutes, washed and detected as above. The experimental IC50 values are in Table 5.

[1] = test system: IGF receptors on MCF-7 cells; assay: Displacement of 125I IGF-1 on MCF-7 cells; set-up: species or system human; details: peptides preincubated with 2 nm 125I IGF-1 for 40 minutes at 37° C; added to cells for 30 minutes; read-out: MCF-7 binding
Description: Displacement of IGF-1 on MCF-7 Cells
MCF7 (ATCC-HTB, Bethesda, Md.), a breast carcinoma cell line that expresses IGF receptors as well as insulin receptors (Grupe et al., J. Biol. Chem., 270, 22085-22088 (1995)) was used to detect inhibition of ^125I IGF-1 to receptors on cells by synthesized peptides. Cell were passaged weekly in media containing a 50/50 mix of high-glucose DMEM/Ham's F12, with 10% fetal bovine serum and 10 mM HEPES pH 7.2. Cells were plated and grown overnight maintained at 37° C. and 5% CO2. For IGF-1 iodination, 50 μg of IGF-1 was diluted into 200 μL of PBS and added to a tube coated with 100 μg of IODOGEN® 1,3,4,6-tetrachloro-3α-6β-diphenylglycouril) (Pierce Chemical Co.), incubated with 1 mCi of ^125I-NaI (10 μL) at room temperature for 10-15 minutes. Synthesized peptides and binding protein controls were preincubated with 2 nm ^125I IGF-1 for 40 minutes at 37° C. The samples were added to cells for 30 minutes. The cells were washed with media and lysed with 1N NaOH.

[2] = test system: human insulin receptor (hIR); assay: Cell-based insulin KIRA assay (kinase receptor activation); details: Chinese hamster ovary cells transfected with hIR; peptides incubated with 25 nm IGF-1 for 1 hr; 15 min stimulation
Description: Cell-Based Insulin KIRA Assay of IGF-1 Binding Peptide Activity
A kinase receptor activation assay (KIRA) (Sadick et al., J. Pharm. Biomed. Anal., 19, 883-891 (1999)) for measuring phosphorylation of human insulin receptor (hIR) was developed using Chinese hamster ovary cells transfected with the hIR. (TRY-1R 5.3) Cells were grown overnight in 96-well plates with medium (PS/20) at 37° C. Supernatants were decanted and stimulation media (PS/20 and 0.5% BSA) containing either peptide samples (peptides incubated with 25 nm IGF-1 for 1 hr), experimental controls (IGF Bp1 incubated with IGF-1 for 1 hr), and 25 nm rhIGF-1 standards were added. After fifteen minute stimulation at 37° C., stimulation solutions were removed and cells were lysed with a buffer containing 50 mM HEPES, 150 mM NaCl, 0.5% Triton-X-100™ octylphenyl ethylene oxide condensate, 1 mM AEBSF, aprotinin and 0.05 mM leupeptin, and 2 mM sodium orthovanadate. Lysates were frozen at −70° C. for ELISA. Immunosorbant plates were coated with 2 μg/ml insulin receptor Ab-2 (clone 83-7) in PBS at pH 7.0 overnight at 4° C. The plate was blocked and washed as above. Cell lysates containing transfected hIR were incubated on the capture ELISA plates for 2 hrs. After removing unbound receptor by washing, biotinylated anti-phosphotyrosine 4G10 (Upstate Biologicals Inc.) was added to detect activated receptor. After 2 hrs, the plates were developed with streptavidin conjugated to HRP and TMB substrate as above.

[3] = test system: human type 1 IGF-1 receptor; assay: Cell-based IGF-1 KIRA assay; details: MCF-7 cells; peptides preincubated 30 min with 2 nm IGF-1; 15-minute stimulation
Description: Cell-Based IGF-1 KIRA Assay
A KIRA for measuring the activation of the human type 1 IGF-1 receptor was performed using human MCF-7 cells (as described above). Cells were grown overnight in 96-well plates with medium (50:50 F12/DMEM, Gibco). Supernatants were decanted, and stimulation media (50:50 F12/DMEM with 25 mM HEPES and 2.0% BSA) containing either controls (2 nM IGF-1 preincubated with IGF Bp1 or Bp3) or experimental samples (Peptides preincubated for 30 min. with 2 nm IGF-1) were added. After 15-minute stimulation the cells were lysed, and added to the polyclonal anti-IGF-R (3B7 Santa Cruz Biotech) coated overnight on immunosorbant plates. The detection ELISA was performed as above.

IGFBP-1 = assay: Peptide inhibition of phage IGF-1 binding to IGFBP-1; set-up: species or system human; details: synthetic peptide preincubated 45 minutes with IGF-1 displaying phage; plates coated with IGF binding protein; read-out: BP1 Comp
Description: as §1, §2

Row | SMILES | IC50 (IGFBP3) [µM] | IC50 [1] [µM] | IC50 [2] [µM] | IC50 [3] [µM] | IC50 (IGFBP-1) [µM]
1 | CSCC[C@H](NC(=O)[C@@H]1CSSC[C@H](NC(=O)[C@H](CC(N)=O)NC(=O)[C@@H](N)CCCNC(=N)N)C(=O)N[C@@H](Cc2ccccc2)C(=O)N[C@@H](CCC(=O)O)C(=O)N[C@@H](CO)C(=O)N[C@@H](C(C)C)C(=O)N[C@@H](C)C(=O)N[C@@H](C)C(=O)N[C@@H](CC(C)C)C(=O)N[C@@H](CCCNC(=N)N)C(=O)N[C@@H](CCCNC(=N)N)C(=O)N1)C(=O)N[C@@H](Cc1ccc(O)cc1)C(=O)NCC(=O)O [Peptide F1-1, RNCFESVAALRRCMYG] (H-RNCFESVAALRRCMYG-OH; disulfide 3-13) | 2.93 | 5.12 | 5.48 | 84.9 | 1.4
2 | CSCC[C@H](NC(=O)[C@@H]1CSSC[C@H](NC(=O)[C@H](CC(=O)O)NC(=O)[C@@H](N)CCSC)C(=O)N[C@@H](CC(C)C)C(=O)N[C@@H](C)C(=O)N[C@@H](CO)C(=O)N[C@@H](C(C)C)C(=O)N[C@@H](CCC(=O)O)C(=O)N[C@@H](C)C(=O)N[C@@H](CC(C)C)C(=O)N[C@@H](CCCCN)C(=O)N[C@@H](Cc2c[nH]c3ccccc23)C(=O)N1)C(=O)N[C@@H](Cc1ccc(O)cc1)C(=O)NCC(=O)O [Peptide F1-2, MDCLASVEALKWCMYG] (H-MDCLASVEALKWCMYG-OH; disulfide 3-13 (inferred); N-terminus and C-terminus assumed) | 9.2 | 15.3 | 32.6 | 20 | 15.5
3 | CSCC[C@H](NC(=O)[C@@H]1CSSC[C@H](NC(=O)[C@H](CCC(=O)O)NC(=O)[C@@H](N)Cc2ccccc2)C(=O)N[C@@H](CC(C)C)C(=O)N[C@@H]([C@@H](C)O)C(=O)N[C@@H](CO)C(=O)N[C@@H](C(C)C)C(=O)N[C@@H](CCC(=O)O)C(=O)N[C@@H](C)C(=O)N[C@@H](CC(C)C)C(=O)N[C@@H](CCCNC(=N)N)C(=O)NCC(=O)N1)C(=O)N[C@@H](Cc1ccc(O)cc1)C(=O)NCC(N)=O [Peptide F1-3, FECLTSVEALRGCMYG] (H-FECLTSVEALRGCMYG-NH2; disulfide 3-13; N-terminus and C-terminus assumed) | 12.8 | 45.7 | 66.1 | 102 | 11.7
